Earlier results as cited in patent US20240423961A1, “1H-1,2,3-TRIAZOLE-4-CARBOXYLIC ACIDS FOR TREATMENT OF HYPEROXALURIA AND KIDNEY STONES” (CANTERO THERAPEUTICS, INC., priority 2021, published 2024).
“And” between values parts separate entries of the source, which are not always exact repeats. Identical values can stand only once. Like-named read-outs stand apart in the source and are kept apart here.

Tested on: glycolate oxidase (GO)
Details: cited from earlier work

lumasiran
measured peak plasma glycolate relative to baseline levels (single subcutaneous dose 0.3 mg/kg): ~1.6 fold | measured peak plasma glycolate relative to baseline levels (single subcutaneous dose 1.0 mg/kg): ~2.5 fold | measured peak plasma glycolate relative to baseline levels (single subcutaneous dose 3.0 mg/kg, 3 mg/kg): ~3.1 fold and ~3 fold | measured peak plasma glycolate relative to baseline levels (single subcutaneous dose 6.0 mg/kg): ~7.3 fold
